The text below walks through data of US7943606B2, “Compositions and methods to control abnormal cell growth” (CanCure Laboratories, LLC, priority 2005, dated 2011).

The subject of experiment [1] is HL-60, HT-168, PC-3 and T47D cells. In words: Viability of four human cancer cell types by Trypan blue exclusion. Format: cell-based. As to the method: PC-3 human prostate adenocarcinoma cells were cultured in 12-well plates in Ham's F12 cell culture medium supplemented with 7% fetal bovine serum; the medium was changed for fresh 10% medium 2 hours prior to treatments. HL-60 human leukemia cells (in flasks) and HT 168 human melanoma cells were cultured in RPMI 1640 medium supplemented with 10% FCS; treatment of HL-60 and HT-168 cells were performed in flasks and 12-well plates, respectively. T47D cells were cultured in 12-well plates in RPMI 1640 medium supplemented with 2 mM L-glutamine, 10 mM Hepes, 1 mM sodium pyruvate, 4.5 g/L glucose, 1.5 g/L sodium bicarbonate, 0.2 I.U. bovine insulin/ml, and 10% fetal bovine serum; the medium was changed for fresh 10% serum-containing medium 2 hours prior to treatments. All cells were incubated for 96 hours in the absence (□) or presence of 25 μM CCDTHT ? , 50 μM CCDTHT ? , or 75 μM CCDTHT (▪). In this experiment, the viability of the cell cultures was estimated by Trypan blue exclusion using hematocytometer, a technique well known to one having ordinary skill in the art. Three independently treated cell cultures, involving at least 300 cells for each treatment, were analyzed. The experimental error is indicated as std. dev.

The subject of another experiment is choline transport. Nature of the experiment: [14C]choline uptake and metabolism in AN3CA, MCF-7 and MEL-28 cancer cells. Format: cell-based, human. Conditions: 100 μM CCDTHT or 0.5 mM HC-3, 2 hours, each cell line. As to the method: MEL-28 and MCF-7 cells were cultured in MEM medium supplemented with 10% fetal bovine serum (FBS) and in DMEM medium supplemented with 10% FBS, respectively. The AN3CA human endometrial adenocarcinoma cells were maintained in Eagle's MEM containing 10% FBS. Cancer cells were grown up to confluency in 12-well plates in 10% fetal-bovine serum-containing medium, then incubated in the presence of 1 μCi of [methyl-^14C]choline (bought from Amersham; Piscataway, N.J.) for 2 hours. Cells were first rapidly (within 30 seconds) washed three times with 4 ml of serum-free medium, then extracted with ice-cold methanol. This was followed by the determination of cellular free radiolabeled choline and phosphocholine (PCho) by column chromatography as described earlier [Kiss, Z. and Crilly, K. S. (1995), “Tamoxifen inhibits uptake and metabolism of ethanolamine and choline in multidrug-resistant, but not in drug-sensitive, MCF-7 human breast carcinoma cells,” FEBS Lett. 360, 165-168], and the separation and determination of radiolabeled phosphatidylcholine (PtdCho) by thin layer chromatography as indicated in Kiss [Kiss, Z. (1996), “Direct proof that phorbol ester accelerates the use of choline phosphate for phosphatidylcholine synthesis in intact cells,” Arch. Biochem. Biophys. 335, 191-196].
MCF-7 and MEL-28 cells were cultured as described earlier. The AN3CA human endometrial adenocarcinoma cells were maintained in Eagle's MEM containing 10% FBS. Each cell type was grown in 12-well plates to confluency and then incubated with 1 μCi of [methyl-^14C]choline for 2 hours in the absence (□) or presence of 100 μM CCDTHT ? or 0.5 mM HC-3 (▪), followed by the determination of cellular contents of radiolabeled choline (A), PCho (B) and PtdCho (C), as indicated in FIG. 9. […] Thus, if both CCDTHT and HC-3 influenced cell viability solely via inhibition of choline metabolism, then these agents should similarly affect cell viability, at least at the concentrations used in the choline transport experiment.

In the case of `CC[N+](C)(CC)CCOCc1ccc2sc3ccccc3c(=O)c2c1.[I-]` [CCDTHT, N,N-diethyl-N-methyl-2-[(9-oxo-9H-thioxanthen-2-yl)methoxy]-ethanaminium iodide], the “number of viable cancer cells, HL-60, HT-168, PC-3 and T47D” value in experiment [1] (50-75 μM, four days) is on record as “strongly decreased”. Further, in experiment [1] (Homo sapiens, 25 μM, 96 hours, Trypan blue, read-out: inhibition of cell proliferation, HL60, HT-168, PC-3 and T47D cells), the inhibition at 25 µM fell in the range of 40 to 55%. Moreover, in experiment [1] (Homo sapiens, 75 μM, 96 hours, Trypan blue, read-out: decrease in the number of viable cells, HL60, HT-168, PC-3 and T47D cells), the cytotoxicity at 75 µM lay within 65 to 85%. The “inhibitory effects on choline uptake and metabolism (choline, PCho, PtdCho)” value in the experiment on choline transport is “comparably strong inhibitory effects”.
